Source: patent US20230192717A1, “COMPOSITIONS AND METHODS OF MODULATING SHORT-CHAIN DEHYDROGENASE ACTIVITY” (RODEO THERAPEUTICS CORPORATION, priority 2020, published 2023)
In brackets after ≈: the same amount, converted by molar mass.

Legend:
hERG channels = hERG channels (Homo sapiens, UniProt Q12809); assay: hERG test on manual patch-clamp system; assay type: cell-based; conditions: CHO-K1 cells expressing hERG, whole-cell patch clamp, room temperature
Procedure: Visual check for precipitation was conducted before testing.

recombinant 15-PGDH = biological target: T1, recombinant 15-PGDH (Homo sapiens, UniProt P15428); assay: inhibition of enzymatic activity of recombinant 15-PGDH in vitro; assay type: biochemical; conditions: recombinant human 15-PGDH
T1 sequence (P15428 1-266): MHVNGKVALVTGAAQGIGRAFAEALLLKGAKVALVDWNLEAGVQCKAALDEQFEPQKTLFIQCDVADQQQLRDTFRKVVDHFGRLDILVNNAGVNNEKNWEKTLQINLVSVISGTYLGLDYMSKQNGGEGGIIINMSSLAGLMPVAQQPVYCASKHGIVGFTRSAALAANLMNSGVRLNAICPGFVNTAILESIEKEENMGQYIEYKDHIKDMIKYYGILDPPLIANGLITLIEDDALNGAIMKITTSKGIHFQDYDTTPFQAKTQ
Excerpt: The Recombinant 15-PGDH is human unless otherwise specified.

[1] = kinetic aqueous solubility in pH 7 citrate buffer; assay type: physicochemical; conditions: kinetic from dmso stock, pH 7 citrate buffer solution, read-out: Kinetic Aq solubility (μM pH 7)
CYP 1A2 = biological target: T2, CYP 1A2 (Homo sapiens, UniProt P05177); assay: microsomal CYP inhibition, 1A2; assay type: in vitro ADME; conditions: human liver microsomes 0.2 mg/ml, substrate Phenacetin
T2 construct: pooled human liver microsomes (Corning, Xenotech, or other qualified vendors; pooled from multiple donors); tissue Corning, Xenotech, or other qualified vendors; host or cells: pooled human liver microsomes
T2 sequence (P05177 1-516): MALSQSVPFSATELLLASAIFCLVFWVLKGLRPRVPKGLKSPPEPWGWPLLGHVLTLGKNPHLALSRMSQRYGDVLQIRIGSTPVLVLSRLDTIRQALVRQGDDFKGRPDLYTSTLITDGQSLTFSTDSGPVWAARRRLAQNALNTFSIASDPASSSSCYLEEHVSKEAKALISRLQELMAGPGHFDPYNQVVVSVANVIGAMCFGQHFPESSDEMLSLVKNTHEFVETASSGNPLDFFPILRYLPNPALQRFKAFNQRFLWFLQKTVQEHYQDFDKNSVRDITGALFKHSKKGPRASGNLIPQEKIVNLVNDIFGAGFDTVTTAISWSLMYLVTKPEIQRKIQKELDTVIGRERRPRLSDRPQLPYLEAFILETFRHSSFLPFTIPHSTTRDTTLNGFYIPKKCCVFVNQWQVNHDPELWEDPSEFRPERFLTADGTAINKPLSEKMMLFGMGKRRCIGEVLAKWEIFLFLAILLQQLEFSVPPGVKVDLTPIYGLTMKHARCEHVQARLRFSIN
Procedure: (§1) CYP450 enzymatic activities was determined using 5in1 marker substrate cocktail. For each reaction, enzyme activities in the presence of the test compound at 8 concentrations (0, 0.05, 0.15, 0.5, 1.5, 5.0, 15.0, or 50.0 μM) were measured in singlet (n=1). A known inhibitor for each isoform, tested at a single concentration (3.0 μM) in duplicate (n=2), was included as positive control. Incubation mixture containing pooled human liver microsomes (Corning, Xenotech, or other qualified vendors; pooled from multiple donors) at 0.2 mg/ml, marker substrates and standard inhibitors (listed in the following table) or the test compound was warm up at 37° C. for 10 minutes. The reactions were initiated by the addition of the NADPH (1.0 mM). […] After the mixture was incubated at 37° C. for 10 minutes, ice cold acetonitrile containing the internal standard (IS) was added to terminate the reactions. The metabolites generated from the marker substrates were measured by LC-MS/MS and were assessed based on peak area ratios of the analyte to IS. The remaining activity (expressed as % of control activity) were calculated; IC50 values of the test compound were determined using SigmaPlot or XLfit with 3- or 4-parameter logistic sigmoidal equation.

CYP 2C19 = biological target: T3, CYP 2C19 (Homo sapiens, UniProt P33261); assay: microsomal CYP inhibition, 2C19; assay type: in vitro ADME; conditions: human liver microsomes 0.2 mg/ml, substrate S-Mephenytoin
T3 construct: pooled human liver microsomes (Corning, Xenotech, or other qualified vendors; pooled from multiple donors); tissue Corning, Xenotech, or other qualified vendors; host or cells: pooled human liver microsomes
T3 sequence (P33261 whole entry): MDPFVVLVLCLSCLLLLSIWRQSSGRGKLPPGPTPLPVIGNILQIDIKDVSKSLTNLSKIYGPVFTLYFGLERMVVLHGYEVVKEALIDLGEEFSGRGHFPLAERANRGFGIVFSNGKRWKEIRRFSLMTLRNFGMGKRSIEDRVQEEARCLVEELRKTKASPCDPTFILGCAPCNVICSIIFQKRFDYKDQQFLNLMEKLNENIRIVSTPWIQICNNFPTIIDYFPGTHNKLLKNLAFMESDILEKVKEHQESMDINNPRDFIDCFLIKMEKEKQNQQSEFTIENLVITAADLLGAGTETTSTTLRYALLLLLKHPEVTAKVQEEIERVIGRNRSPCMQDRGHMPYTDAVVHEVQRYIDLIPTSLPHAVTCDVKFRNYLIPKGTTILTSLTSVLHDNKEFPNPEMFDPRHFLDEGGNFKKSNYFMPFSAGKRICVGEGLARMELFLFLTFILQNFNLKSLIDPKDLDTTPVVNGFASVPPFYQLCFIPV
Procedure: as §1

CYP 2D6 = biological target: T4, CYP 2D6 (Homo sapiens, UniProt P10635); assay: microsomal CYP inhibition, 2D6; assay type: in vitro ADME; conditions: human liver microsomes 0.2 mg/ml, substrate Dextromethorphan
T4 construct: pooled human liver microsomes (Corning, Xenotech, or other qualified vendors; pooled from multiple donors); tissue Corning, Xenotech, or other qualified vendors; host or cells: pooled human liver microsomes
T4 sequence (P10635 whole entry): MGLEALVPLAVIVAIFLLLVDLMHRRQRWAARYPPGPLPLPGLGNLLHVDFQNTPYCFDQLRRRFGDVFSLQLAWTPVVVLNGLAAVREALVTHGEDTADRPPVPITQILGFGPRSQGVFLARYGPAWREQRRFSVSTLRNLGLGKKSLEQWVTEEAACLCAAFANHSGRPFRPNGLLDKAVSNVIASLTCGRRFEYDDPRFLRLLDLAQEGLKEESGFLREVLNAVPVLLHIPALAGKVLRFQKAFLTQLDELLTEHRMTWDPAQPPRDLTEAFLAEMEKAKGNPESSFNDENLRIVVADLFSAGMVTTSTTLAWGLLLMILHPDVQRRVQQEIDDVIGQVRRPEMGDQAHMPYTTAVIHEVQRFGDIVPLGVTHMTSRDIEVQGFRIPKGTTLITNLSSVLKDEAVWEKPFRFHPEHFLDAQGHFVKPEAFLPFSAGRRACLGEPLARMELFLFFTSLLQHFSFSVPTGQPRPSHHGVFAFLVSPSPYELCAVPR
Procedure: as §1

[2] = in vitro microsome metabolic stability, human (HLM); assay type: in vitro ADME; conditions: pooled human liver microsomes, pH 7.4; human liver microsomes 0.5 mg/mL, 1 μM compound, NADPH, 37° C.; read-out: HLM (T1/2, min)
Procedure: (§2) Human microsome stability (HLM), mouse microsome stability (MLM), hERG IC50, Caco-2 permeability, CYP inhibition, and pharmacokinetic (PK) properties were determined on selected compounds of the disclosure.
(§3) Pooled liver microsomes (Human and CD-1 mouse) were purchased from Corning or XenoTech LLC and stored at −80° C. freezer before use. NADPH cofactor system—β-Nicotinamide adenine dinucleotide phosphate reduced form, tetrasodium salt, NADPH·4Na(NADPH) (Vendor: Chem-impex international, Cat.No. 00616) was used. Control compounds were Testosterone, Diclofenac, Propafenone.
(§4) Stock solution—Test compound was 10 mM in DMSO (Dimethyl Sulfoxide).
(§5) Working solution—Dilute 5 μL of compound or control from stock solution (10 mM) with 495 μL 100% Acetonitrile (Conc.: 100 μM, 99% ACN, 1% DMSO; final concentration in reaction system: 1 μM, 0.99% ACN, 0.01% DMSO).
(§6) Potassium Phosphate Buffer 100 mM (pH 7.4±0.1)
(§7) NADPH Cofactor: The appropriate amount of NADPH powder was weighed, and diluted into MgCl2 solution (work solution concentration: 10 mM NADPH and 10 mM MgCl2; final concentration in reaction system: 1 mM NADPH and 1 mM MgCl2).
(§8) Liver microsome preparation (0.5 mg/mL): Pipette appropriate volume of microsome (20 mg/mL) to 100 mM buffer solution (Conc.: 0.56 mg/mL, Final concentration in reaction system: 0.5 mg/mL).
(§9) Automatic Workstation was used for all liquid handling and incubation.

Caco-2 Cells = assay: Caco-2 permeability test; assay type: in vitro ADME; conditions: Caco-2, 2.0 μM, 2 hours, pH 7.40
Procedure: (§10) Caco-2 Cells (obtained from ATCC) were seeded onto PET membranes of 96-well Insert Plates and cultured for 21-28 days before being used in the transport assays. The integrity of the monolayer was verified by performing Lucifer yellow rejection assay. The quality of the monolayer was verified by measuring the unidirectional (A to B) permeability of nadolol (low permeability marker), metoprolol (high permeability marker) and bi-directional permeability of digoxin (a P-glycoprotein substrate marker) in duplicate wells. Nadolol and metoprolol were tested at 2.0 μM, and digoxin was tested at 10.0 μM. […]
(§11) Dosing solutions were removed and mixed with transport buffer and Stop Solution containing an appropriate internal standard (IS) as T0 samples. […] All samples including T0 samples, donor samples and receiver samples were analyzed using LC/MS/MS. Concentrations of test compounds were expressed as peak area ratio of analytes to IS without a standard curve.
(§12) The A to B and B to A apparent permeability coefficients (Papp), % Solution Recovery, and Efflux ratio (ER) were determined.

Caco-2 permeability test = assay type: in vitro ADME; conditions: human, pH 7.4, Caco-2, 2.0 μM, A to B and B to A, pH 7.40, read-out: Caco summary: ER (efflux ratio)
Procedure: as §10, §11, §12

CYP 2C9 = biological target: T5, CYP 2C9 (Homo sapiens, UniProt P11712); assay: microsomal CYP inhibition, 2C9; assay type: in vitro ADME; conditions: human liver microsomes 0.2 mg/ml, substrate Diclofenac
T5 construct: pooled human liver microsomes (Corning, Xenotech, or other qualified vendors; pooled from multiple donors); tissue Corning, Xenotech, or other qualified vendors; host or cells: pooled human liver microsomes
T5 sequence (P11712 whole entry): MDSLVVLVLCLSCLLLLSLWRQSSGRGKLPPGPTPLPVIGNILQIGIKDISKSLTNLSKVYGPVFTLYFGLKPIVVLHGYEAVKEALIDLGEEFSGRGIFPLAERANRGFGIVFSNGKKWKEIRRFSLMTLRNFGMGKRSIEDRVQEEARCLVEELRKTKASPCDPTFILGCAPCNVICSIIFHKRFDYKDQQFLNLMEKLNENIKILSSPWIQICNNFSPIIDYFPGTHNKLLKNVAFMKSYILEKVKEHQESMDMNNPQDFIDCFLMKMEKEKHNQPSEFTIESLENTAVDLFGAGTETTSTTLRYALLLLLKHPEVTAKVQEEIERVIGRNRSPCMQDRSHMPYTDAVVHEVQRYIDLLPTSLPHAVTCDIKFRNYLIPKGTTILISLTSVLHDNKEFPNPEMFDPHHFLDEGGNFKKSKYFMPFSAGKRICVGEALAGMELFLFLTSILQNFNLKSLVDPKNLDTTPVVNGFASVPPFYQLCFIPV
Procedure: as §1

CYP 3A4 = biological target: T6, CYP 3A4 (Homo sapiens, UniProt P08684); assay: microsomal CYP inhibition, 3A4; assay type: in vitro ADME; conditions: human liver microsomes 0.2 mg/ml, substrate Midazolam; read-out: CYP inhibition (μM) 3A4 (3A4M)
T6 construct: pooled human liver microsomes (Corning, Xenotech, or other qualified vendors; pooled from multiple donors); tissue Corning, Xenotech, or other qualified vendors; host or cells: pooled human liver microsomes
T6 sequence (P08684 whole entry): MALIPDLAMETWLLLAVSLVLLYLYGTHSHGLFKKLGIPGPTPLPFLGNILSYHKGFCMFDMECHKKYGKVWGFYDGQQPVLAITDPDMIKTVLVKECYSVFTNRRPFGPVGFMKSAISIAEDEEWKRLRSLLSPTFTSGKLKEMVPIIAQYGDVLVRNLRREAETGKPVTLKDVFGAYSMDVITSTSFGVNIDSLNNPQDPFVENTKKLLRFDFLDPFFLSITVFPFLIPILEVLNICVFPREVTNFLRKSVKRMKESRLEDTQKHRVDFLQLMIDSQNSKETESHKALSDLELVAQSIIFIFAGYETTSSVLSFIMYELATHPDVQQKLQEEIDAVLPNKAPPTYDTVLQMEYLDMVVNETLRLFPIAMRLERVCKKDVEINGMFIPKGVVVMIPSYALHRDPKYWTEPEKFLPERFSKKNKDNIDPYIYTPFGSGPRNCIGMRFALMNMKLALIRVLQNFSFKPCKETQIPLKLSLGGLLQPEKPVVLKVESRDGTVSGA
Procedure: as §1

[3] = in vitro microsome metabolic stability, mouse (MLM); assay type: in vitro ADME; conditions: pooled CD-1 mouse liver microsomes, pH 7.4; CD-1 mouse liver microsomes 0.5 mg/mL, 1 μM compound, NADPH, 37° C.; read-out: MLM (T1/2, min)
Procedure: as §2, §3, §4, §5, §6, §7, §8, §9

hERG channels, sequence (Q12809 whole entry): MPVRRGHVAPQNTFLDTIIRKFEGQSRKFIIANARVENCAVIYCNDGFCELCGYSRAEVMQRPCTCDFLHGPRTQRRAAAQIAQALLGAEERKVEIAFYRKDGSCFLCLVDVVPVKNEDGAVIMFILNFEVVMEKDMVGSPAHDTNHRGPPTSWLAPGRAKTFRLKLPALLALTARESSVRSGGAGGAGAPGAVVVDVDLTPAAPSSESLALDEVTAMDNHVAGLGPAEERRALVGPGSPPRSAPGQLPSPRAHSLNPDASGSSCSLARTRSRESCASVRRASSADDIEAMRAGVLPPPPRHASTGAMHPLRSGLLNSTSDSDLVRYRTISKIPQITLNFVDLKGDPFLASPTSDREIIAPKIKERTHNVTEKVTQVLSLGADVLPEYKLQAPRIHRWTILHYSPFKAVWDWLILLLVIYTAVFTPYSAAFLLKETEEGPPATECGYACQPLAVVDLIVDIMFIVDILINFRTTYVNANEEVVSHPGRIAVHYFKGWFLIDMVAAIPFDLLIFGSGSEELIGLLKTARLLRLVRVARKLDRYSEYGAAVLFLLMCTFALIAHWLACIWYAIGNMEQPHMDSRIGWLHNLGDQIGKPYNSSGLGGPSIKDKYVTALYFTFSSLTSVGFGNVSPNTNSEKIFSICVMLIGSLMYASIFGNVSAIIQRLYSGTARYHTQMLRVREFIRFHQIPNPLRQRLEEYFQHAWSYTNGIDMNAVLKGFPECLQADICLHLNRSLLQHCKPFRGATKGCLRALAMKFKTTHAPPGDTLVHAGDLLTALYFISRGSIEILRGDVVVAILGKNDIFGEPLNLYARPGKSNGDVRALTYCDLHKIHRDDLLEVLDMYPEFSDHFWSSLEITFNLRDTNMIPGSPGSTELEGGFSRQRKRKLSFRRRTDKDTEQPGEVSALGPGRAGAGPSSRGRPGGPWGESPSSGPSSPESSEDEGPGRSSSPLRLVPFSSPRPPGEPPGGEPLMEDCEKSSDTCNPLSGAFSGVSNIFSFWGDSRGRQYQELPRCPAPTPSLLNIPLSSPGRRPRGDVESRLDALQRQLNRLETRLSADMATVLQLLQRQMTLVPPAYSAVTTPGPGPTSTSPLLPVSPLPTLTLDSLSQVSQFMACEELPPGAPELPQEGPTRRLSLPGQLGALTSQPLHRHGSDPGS

| Compound | IC50 (hERG channels) | IC50 (recombinant 15-PGDH) | solubility kinetic [1] | IC50 (CYP 1A2) | IC50 (CYP 2C19) | IC50 (CYP 2D6) | half-life at 1 μM [2] | Caco summary: permeability (high/low) (Caco-2 Cells) | efflux ratio at 2 h, 2 μM (Caco-2 permeability test) | IC50 (CYP 2C9) | IC50 (CYP 3A4) | half-life at 1 μM [3] |
| --- | --- | --- | --- | --- | --- | --- | --- | --- | --- | --- | --- | --- |
| COCC[S@@+]([O-])c1sc2nc(-c3cnc4nn(C)cc4c3)c(C#N)c(-c3ccccc3)c2c1N [Compound 9, (R)-3-amino-2-((2-methoxyethyl)sulfinyl)-6-(2-methyl-2H-pyrazolo[3,4-b]pyridin-5-yl)-4-phenylthieno[2,3-b]pyridine-5-carbonitrile] | 13 µM | < 0.0025 µM | 169 µM (≈ 82.6 µg/mL) | – | – | – | – | – | – | – | – | – |
| COCC[S@@+]([O-])c1sc2nc(-c3cnc4nn(C)nc4c3)cc(C(C)(C)C)c2c1N [Compound 29, 4-tert-butyl-2-[(R)-2-methoxyethanesulfinyl]-6-{2-methyl-2H-[1,2,3]triazolo[4,5-b]pyridin-6-yl}thieno[2,3-b]pyridin-3-amine] | 11 µM | < 0.0025 µM | 188 µM (≈ 83.6 µg/mL) | > 50 µM | 1 µM | 29 µM | 100 min | high | 1 | 4 µM | 39 µM | 86 min |
